Source: patent publication US20080249092A1, “Novel Quinoline Compounds Capable Of Binding At The Cb2 Receptor” (priority 2006, published 2008)
Where a name gives a salt, the structure may show the parent alone.

target: T1, human cannabinoid CB2 receptor (Homo sapiens, UniProt P34972); test: Cannabinoid CB2 receptor agonist activity in yeast cells (FDGlu fluorescence); format: cell-based; conditions: not given
T1 construct: expressed in transfected cells; host or cells: Saccharomyces cerevisiae strain MMY23 (cassette integrated at the ura3 locus, GPD promoter)
T1 sequence (P34972 whole entry): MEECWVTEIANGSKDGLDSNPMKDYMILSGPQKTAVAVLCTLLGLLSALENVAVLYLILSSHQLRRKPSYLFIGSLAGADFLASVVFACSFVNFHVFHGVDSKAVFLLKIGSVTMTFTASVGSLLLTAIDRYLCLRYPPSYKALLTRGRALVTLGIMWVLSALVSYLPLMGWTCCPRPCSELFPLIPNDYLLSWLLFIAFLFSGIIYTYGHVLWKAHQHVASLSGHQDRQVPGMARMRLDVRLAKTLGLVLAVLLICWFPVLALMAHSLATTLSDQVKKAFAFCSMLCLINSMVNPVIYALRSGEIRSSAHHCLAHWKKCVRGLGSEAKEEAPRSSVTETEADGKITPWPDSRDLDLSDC
Description: The cannabinoid CB2 receptor agonist activity of compounds of formula (I) was determined in accordance with the following experimental method.
Yeast (Saccharomyces cerevisiae) cells expressing the human cannabinoid CB2 receptor were generated by integration of an expression cassette into the ura3 chromosomal locus of yeast strain MMY23. This cassette consisted of DNA sequence encoding the human CB2 receptor flanked by the yeast GPD promoter to the 5′ end of CB2 and a yeast transcriptional terminator sequence to the 3′ end of CB2. MMY23 expresses a yeast/mammalian chimeric G-protein alpha subunit in which the C-terminal 5 amino acids of Gpa1 are replaced with the C-terminal 5 amino acids of human Gαi1/23 (as described in Brown et al. (2000), Yeast 16:11-22). Cells were grown at 30° C. in liquid Synthetic Complete (SC) yeast media (Guthrie and Fink (1991), Methods in Enzymology, Vol. 194) lacking uracil, tryptophan, adenine and leucine to late logarithmic phase (approximately 6 OD600/ml).
Agonists were prepared as 10 mM solutions in DMSO. EC50 values (the concentration required to produce 50% maximal response) were estimated using 4 fold dilutions of between 3- and 5-fold (BiomekFX, Beckman) into DMSO. Agonist solutions in DMSO (1% final assay volume) were transferred into black microtitre plates from NUNC Greiner (384-well). Cells were suspended at a density of 0.2 OD600/ml in SC media lacking histidine, uracil, tryptophan, adenine and leucine and supplemented with 10 mM 3-aminotriazole, 0.1 M sodium phosphate pH 7.0, and 120 μM fluorescein di-β-D-glucopyranoside (FDGlu). This mixture (50 ul per well) was added to agonist in the assay plates (Multidrop 384, Labsystems). After incubation at 30° C. for 24 hours, fluorescence resulting from degradation of FDGlu to fluorescein due to exoglucanase, an endogenous yeast enzyme produced during agonist-stimulated cell growth, was determined using a fluorescence microtitre plate reader (Tecan Spectrofluor or LJL Analyst excitation wavelength: 485 nm; emission wavelength: 535 nm). Fluorescence was plotted against compound concentration and iteratively curve fitted using a four parameter fit to generate a concentration effect value.
Efficacy (Emax) was calculated from the equation
Emax=Max[compound X]−Min[compound X]/Max[HU210]−Min[HU210]×100%
where Max[compound X] and Min[compound X] are the fitted maximum and minimum respectively from the concentration effect curve for compound X, and Max[HU210] and Min[HU210] are the fitted maximum and minimum respectively from the concentration effect curve for (6aR, 10aR)-3-(1,1′-Dimethylheptyl)-6a,7,10,10a-tetrahydro-1-hydroxy-6,6-dimethyl-6H-dibenzo[b,d]pyran-9-methanol (HU210; available from Tocris). Equieffective molar ratio (EMR) values were calculated from the equation
Where EC50 [compound X] is the EC50 of compound X and EC50 [HU210] is the EC50 of HU210.
pEC50 is the negative log of the EC50.

SMILES	EC50
O=S(=O)(c1ccc(Cl)cc1)c1cnc2c(NCC3CCOCC3)cccc2c1 [Example E3, 3-[(4-Chlorophenyl)sulfonyl]-N-(tetrahydro-2H-pyran-4-ylmethyl)-8-quinolinamine]	< 1000 nM

same assay, conditions: agonist activity; Saccharomyces cerevisiae cells expressing the human CB2 receptor; 24 hours at 30° C.; read-out: pEC50 at the CB2 receptor (converted)

SMILES	EC50
O=S(=O)(c1ccccc1)c1cnc2c(NCC3CCOCC3)cccc2c1 [Example E1, 3-(Phenylsulfonyl)-N-(tetrahydro-2H-pyran-4-ylmethyl)-8-quinolinamine]	< 1000 nM
O=S(=O)(c1ccccc1)c1cnc2c(NCc3cccnc3)cccc2c1 [Example E4, 3-(Phenylsulfonyl)-N-(3-pyridinylmethyl)-8-quinolinamine]	< 1000 nM
Cc1cc(CCNc2cccc3cc(S(=O)(=O)c4ccccc4)cnc23)ccn1 [Example E7, N-[2-(2-methyl-4-pyridinyl)ethyl]-3-(phenylsulfonyl)-8-quinolinamine hydrochloride]	< 1000 nM

Second part, the compound after the results:

EC50	SMILES
< 10000 nM	O=S(=O)(c1ccccc1)c1cnc2c(NCCN3CCOCC3)cccc2c1 [Example E2, N-[2-(4-Morpholinyl)ethyl]-3-(phenylsulfonyl)-8-quinolinamine hydrochloride]
< 1000 nM	O=S(=O)(c1ccccc1)c1cnc2c(NCCc3ccncc3)cccc2c1 [Example E5, 3-(Phenylsulfonyl)-N-[2-(4-pyridinyl)ethyl]-8-quinolinamine hydrochloride]
< 1000 nM	O=S(=O)(c1ccccc1)c1cnc2c(NCCC3CCOCC3)cccc2c1 [Example E6, 3-(Phenylsulfonyl)-N-[2-(tetrahydro-2H-pyran-4-yl)ethyl]-8-quinolinamine hydrochloride]
